The record followed here is US8900600B2, “Identification, optimization and use of cryptic HLA-A24 epitopes for immunotherapy” (VAXON Biotech, priority 2009, dated 2014).

In experiment [1] the test system is HLA-A*2402 transgenic mice. As to the kind of experiment: CTL induction in vivo in HLA-A*2402 transgenic mice (immunogenicity, Cr51 cytotoxic assay). Particulars: for Immunogenicity (X/Y): X mice develop a specific response for a total of Y mice vaccinated / Immunogenicity (class): Table 7, mice vaccinated with the native or modified peptide; for Immunogenicity (class): share of mice responding; for Immunogenicity: Table 5, mice vaccinated with 100 μg native peptide in IFA, share of mice with specific immune response. Also on record: key to Immunogenicity: (−) means that none of the mice vaccinated with the corresponding native peptides develops a specific immune response; (+) that less to 50% of vaccinated mice responded; (++) that more that 50% responded; key to Immunogenicity (class): −: (-) means that none of the mice vaccinated with the corresponding native peptides develops a specific immune response; (+) that less to 50% of vaccinated mice responded; (++) that more that 50% responded. The procedure:
FIG. 1: Panels 1A-1F of FIG. 1 show immunogenicity of HLA-A*2402 cryptic peptides. HLA-A*2402 transgenic mice were vaccinated with the cryptic peptides following the described protocol and generated CTL were tested against T2-A24 targets loaded with peptide as indicated (NR non relevant peptide). Percentage of specific lysis was determined as: Lysis=(Experimental Release−Spontaneous Release)/(Maximal Release−Spontaneous Release)×100. Four CTL dilutions, corresponding to four CTL/target cells ratio were tested.
(§1) The transgenic mice used in the described experiments were obtained by crossing HLA-A24 transgenic mice previously described (Barra et al., 1993) and H2 Kb^− H2 Db^− knock out mice, transgenic for both human β2 microglobulin and CD8α chain (Perarnau et al., 1999).
Mice were injected subcutaneously with 100 μg of peptide emulsified in Incomplete Freund's Adjuvant (IFA) in the presence of 150 μg of the I-A^b restricted HBVcore128 T helper epitope (TPPAYRPPNAPIL, SEQ ID NO: 112). After 15 days, 5×10^7 spleen cells were stimulated twice in vitro with peptide (10 μM), at 6 days interval. On day 13 of culture, the bulk responder populations were tested for specific cytotoxicity against target cells expressing HLA-A*2402 and loaded with the same peptide.
(§2) Targets were labelled with 100 μCi of Cr^51 for 60 min, plated in 96-well V-bottomed plates (3×10^3 cell/well in 100 μL of RPMI 1640 medium) and, when necessary, pulsed with optimized or native peptides (1 μM) at 37° C. for 2 hours. Four dilutions of effector cells were then added in the wells and incubated at 37° C. for 4 hours. Percentage of specific lysis was determined as: Lysis=(Experimental Release−Spontaneous Release)/(Maximal Release−Spontaneous Release)×100.

The next experiment deals with HLA-A*2402 (Homo sapiens, UniProt P04439, D101N/D140Y/D185E/E176V/E190D/F33S/G103R/G107R/I119L/I121M/I306V/K335N/L105A/L180Q/L300P/N151K/N90K/Q86E/Q94H/R106L/R138H/R89G/T104I/T345S/V100E/W191G/Y123F). In words: Measurement of peptide relative affinity to HLA-A*2402 (surface expression on T2-A24 cells). Particulars: for RA (Relative Affinity): T2-A24 cells, 16 hours at 37° C., relative to reference peptide standard A24, concentration inducing 30% of HLA-A*2402 expression. Format: cell-based. The procedure: Measurement of Peptide Relative Affinity to HLA-A*2402.
The protocol used has been described previously (Rohrlich et al., 2003). Briefly, T2-A24 cells were incubated at 37° C. for 16 hours with peptides concentrations ranging from 100 μM to 0.1 μM, and then stained with 0041HA monoclonal antibody (mAb)(One Lambda, Inc.) to quantify the surface expression of HLA-A*2402. For each peptide concentration, the HLA-A*2402 specific staining was calculated as the percentage of staining obtained with 100 μM of the reference peptide standard A24 (AYIDNYNKF, SEQ ID NO: 111). The relative affinity (RA) was determined as: RA=(Concentration of each peptide that induces 30% of HLA-A*2402-expression/Concentration of the reference peptide that induces 30% of HLA-A*2402 expression).

For experiment [2], the system named is HLA-A*2402 transgenic mice. In words: Cross-recognition assay: CTL from mice vaccinated with optimized peptide tested on targets loaded with native peptide. Format: in vivo. To be noted: Table 7, CTL of mice vaccinated with the optimized peptide. The procedure: FIG. 2: Panels 2A-2F of FIG. 2 show immunogenicity of HLA-A*2402 restricted optimized cryptic peptides. HLA-A*2402 transgenic mice were vaccinated with the optimized peptide following the described protocol and generated CTL were tested against T2-A24 targets loaded with the optimized (immunogenicity), the corresponding native (native peptide cross recognition) or an irrelevant (NR) peptide as indicated. Percentage of specific lysis was determined as: Lysis=(Experimental Release−Spontaneous Release)/(Maximal Release−Spontaneous Release)×100. Four CTL dilutions, corresponding to four CTL/target cells ratio were tested.
as §1
Mice were injected subcutaneously with 100 μg of optimized peptide emulsified in Incomplete Freund's Adjuvant (IFA) in the presence of 150 μg of the I-A^b restricted HBVcore128 T helper epitope (TPPAYRPPNAPIL, SEQ ID NO: 112). After 15 days, 5×10^7 spleen cells were stimulated firstly in vitro with the optimized peptide (10 μM), and secondly on day 6 of culture with the corresponding native peptide. On day 13, the bulk responder populations were tested for specific cytotoxicity against targets cells expressing HLA-A*2402 and loaded with the optimized, the native or an irrelevant peptide.
as §2

Consider “KYGVLLKTL (Optimized peptide derived from cryptic peptides of SEQ ID Nos 1 to 9) [TERT 403 K1L9]”, for which, in experiment [1], the “Immunogenicity in HLA-A24 transgenic mice (in words)” value (from here on “Immunogenicity … (in words)”) is reported as “developed peptide specific CTLs”, the “Immunogenicity (X/Y): X mice develop a specific response for a total of Y mice vaccinated” value (from here on “Immunogenicity (X/Y)”) is 4/15 and the “Immunogenicity (class)” value is recorded as “+ ((+) that less to 50% of vaccinated mice responded)”.

Take “PYDGIPARE (Cryptic HLA-A2402 restricted peptide) [Her2/neu 922, native cryptic HLA-A*2402 restricted peptide]”: the “RA (Relative Affinity)” value in the experiment with HLA-A*2402 is “− ((−) means RA > 100)”.

For the sequence “PYGCLLDHV (Cryptic HLA-A2402 restricted peptide) [Her2/neu 802]”, in the experiment with HLA-A*2402, the “Binding to HLA-A*2402 (in words)” value was “binds to the HLA-A*2402” and the “RA (Relative Affinity)” value is listed as “+ ((+) 5 < RA < 10)”. Moreover, in experiment [1], the “Immunogenicity … (in words)” value is listed as “immunogenic” and the Immunogenicity result was “++ ((++) that more that 50% responded)”.

For “PYGKGWDLM (Cryptic HLA-A2402 restricted peptide) [EphA2 47, native cryptic HLA-A*2402 restricted peptide]”, in experiment [2], the “Native peptide cross recognition (X/Y): X mice develop a specific response for a total of Y mice vaccinated” value (shortened to “Native peptide cross recognition (X/Y)”) is given as 7/9 and the “Native peptide cross recognition (class)” value is on record as “++ ((++) that more that 50% responded)”. In experiment [1], the Immunogenicity result was “−”, the “Immunogenicity (X/Y)” value is recorded as 0/6 and the “Immunogenicity (class)” value is given as “−”.

Take “PYGVLLKTH (Cryptic HLA-A2402 restricted peptide) [TERT 403, native cryptic HLA-A*2402 restricted peptide]”: in experiment [2], the “Native peptide cross recognition (X/Y)” value was 3/15 and the “Native peptide cross recognition (class)” value is recorded as “+ ((+) that less to 50% of vaccinated mice responded)”. In the experiment with HLA-A*2402, the “RA (Relative Affinity)” value is reported as “− ((−) means RA > 100)”. Further, in experiment [1], the Immunogenicity entry is on record as “−”, the “Immunogenicity (X/Y)” value is listed as 0/3 and the “Immunogenicity (class)” value is recorded as “−”.

As to “PYNYLSTDV (Cryptic HLA-A2402 restricted peptide) [Her2/neu 300, native cryptic HLA-A*2402 restricted peptide]”, the “RA (Relative Affinity)” value in the experiment with HLA-A*2402 is given as “− ((−) means RA > 100)”. In addition, in experiment [1], the Immunogenicity entry was “−”, the “Immunogenicity (X/Y)” value is on record as 0/3 and the “Immunogenicity (class)” value is on record as “−”.

With “PYWELSNHE (Cryptic HLA-A2402 restricted peptide) [EphA2 817, native cryptic HLA-A*2402 restricted peptide]”, in experiment [2], the “Native peptide cross recognition (X/Y)” value is recorded as 2/3 and the “Native peptide cross recognition (class)” value is “++ ((++) that more that 50% responded)”. In addition, in experiment [1], the Immunogenicity entry is given as “−”, the “Immunogenicity (X/Y)” value is 0/3 and the “Immunogenicity (class)” value is recorded as “−”.

On to “RYDGIPARL (Optimized peptide derived from cryptic peptides of SEQ ID Nos 1 to 9) [Her2/neu 922 R1L9, modified peptide]”, for which, in experiment [1], the “Immunogenicity (X/Y)” value is reported as 0/9 and the “Immunogenicity (class)” value is “−”.

As for “RYEFLWGPL (Optimized peptide derived from cryptic peptides of SEQ ID Nos 1 to 9) [MAGE 261 L9, modified peptide]”, in experiment [1], the “Immunogenicity (X/Y)” value was 0/9 and the “Immunogenicity (class)” value is listed as “−”.

Take “RYEFLWGPR (Cryptic HLA-A2402 restricted peptide) [MAGE 261, native cryptic HLA-A*2402 restricted peptide]”: the “RA (Relative Affinity)” value in the experiment with HLA-A*2402 is “− ((−) means RA > 100)”. Further, in experiment [1], the Immunogenicity result is recorded as “−”, the “Immunogenicity (X/Y)” value is listed as 0/3 and the “Immunogenicity (class)” value is “−”.

For “RYGKGWDLL (Optimized peptide derived from cryptic peptides of SEQ ID Nos 1 to 9) [EphA2 47 R1L9]”, in experiment [1], the “Immunogenicity … (in words)” value was “developed peptide specific CTLs”, the “Immunogenicity (X/Y)” value is listed as 7/9 and the “Immunogenicity (class)” value was “++ ((++) that more that 50% responded)”.

In the case of “RYLVQVQAL (Optimized peptide derived from cryptic peptides of SEQ ID Nos 1 to 9) [EphA2 502 R1]”, in experiment [1], the “Immunogenicity … (in words)” value is recorded as “developed peptide specific CTLs”, the “Immunogenicity (X/Y)” value is recorded as 3/3 and the “Immunogenicity (class)” value is “++ ((++) that more that 50% responded)”.

For “RYMRQFVAL (Optimized peptide derived from cryptic peptides of SEQ ID Nos 1 to 9) [TERT 770 R1L9]”, in experiment [1], the “Immunogenicity … (in words)” value is listed as “developed peptide specific CTLs”, the “Immunogenicity (X/Y)” value is on record as 12/18 and the “Immunogenicity (class)” value was “++ ((++) that more that 50% responded)”.

As for “RYNYLSTDL (Optimized peptide derived from cryptic peptides of SEQ ID Nos 1 to 9) [Her2/neu 300 R1L9, modified peptide]”, in experiment [1], the “Immunogenicity (X/Y)” value was 0/9 and the “Immunogenicity (class)” value is recorded as “−”.

As for “RYVSRLLGI (Optimized peptide derived from cryptic peptides of SEQ ID Nos 1 to 9) [HER 780 R1]”, in experiment [1], the “Immunogenicity … (in words)” value is “developed peptide specific CTLs”, the “Immunogenicity (X/Y)” value is 4/9 and the “Immunogenicity (class)” value is reported as “+ ((+) that less to 50% of vaccinated mice responded)”.

As for “RYWELSNHL (Optimized peptide derived from cryptic peptides of SEQ ID Nos 1 to 9) [EphA2 817 R1L9]”, in experiment [1], the “Immunogenicity … (in words)” value is recorded as “developed peptide specific CTLs”, the “Immunogenicity (X/Y)” value is given as 2/3 and the “Immunogenicity (class)” value is “++ ((++) that more that 50% responded)”.

“TYLVQVQAL (Cryptic HLA-A2402 restricted peptide) [EphA2 502, native cryptic HLA-A*2402 restricted peptide]”: in experiment [2], the “Native peptide cross recognition (X/Y)” value is reported as 2/3 and the “Native peptide cross recognition (class)” value was “++ ((++) that more that 50% responded)”. In addition, in experiment [1], the Immunogenicity entry is “−”, the “Immunogenicity (X/Y)” value is recorded as 0/3 and the “Immunogenicity (class)” value is reported as “−”.
